# From patent EP3184514A1, “AUTOPHAGY INHIBITORS” (Deutsches Krebsforschungszentrum, priority 2015, dated 2017)
# Columns and labels:
# LC3B [1] = test: cellular autophagy screening: LC3B spots by immunocytochemistry and automated confocal imaging; assay type: cell-based; conditions: Table 1-a; relative to negative DMSO control; 100 µM, 1 hour; n.e. means no effect
# Procedure: For screening purposes, cells were seeded in 384 well plates and left over night for attachment.
# Afterwards, medium was removed and 4 % (w/v) paraformaldehyde (PFA) in PBS buffer was added to the cells for 20 minutes, incubated at room temperature. Cells were permeabilized with 0.1 % (v/v) Triton X-100 for 10 min at room temperature and washed with PBS. Cells were blocked with 3 % (w/v) bovine serum albumin (BSA) in PBS for 45 minutes at 37 °C and then incubated with anti-LC3B (PM036, MBL) or anti-p62 (PM045 or M162-3, MBL) primary antibody diluted in 0.3 % BSA (1:2000 or 1:500) for 1.5-2 hours at 37 °C. Cells were washed three times with PBS.
# 384 well plates were then analyzed with an automated confocal microscope Opera (PerkinElmer) enabling high throughput high content screening image analysis. […] A water immersion 60x objective was used for optical slicing and stacking (5x0.5 µm stacks). […] Signal was detected with a fast gated CCD camera. Acapella software (PerkinElmer) is an algorithm based high content imaging and analysis software used in multi-parametric multiplex assays. Acapella was used to follow cell viability (i.e. number of cells) and the number of LC3B and p62 spots per cell.
# The LC3B protein is a ubiquitin-like protein that can be conjugated to phosphatidylethanolamine (PE) in the membrane of the incipient autophagosome. The nonlipidated and lipidated forms are usually referred to as LC3B-I and LC3B-II, respectively. […] Autophagic flux is often inferred on the basis of LC3B-II turnover, measured by western blot (WB) or immunofluorescence (IF) in the presence and absence of lysosomal degradation. […] Lysosomal degradation can be prevented e.g. through the use of compounds that neutralize the lysosomal pH such as Bafilomycin A1 (BafA1) or chloroquine (CQ). […] An additive or supra-additive effect in LC3B-II levels (WB) and LC3B-positive punctae numbers (IF) may indicate that the treatment enhances autophagic flux. […] This assay can be complemented by simultaneous monitoring of autophagosomal substrates or autophagosomal substrate receptors (e.g. SQSTM1/p62) by WB and/or IF. For example, an increase in LC3B-II levels in combination with the accumulation of SQSTM1/p62 is indicative of a blockage of the autophagy pathway at terminal stages.
# LC3B [2] = test: NMR titration (1H-15N HSQC, chemical shift perturbations); assay type: binding; conditions: 10 fold excess of compound, before prolonged incubation
# U2OS cells = test: autophagic flux by confocal microscopy and western blotting; assay type: cell-based, Human
# Procedure: […]. After harvesting, cells were lysed with radioimmunoprecipitation assay (RIPA) buffer (50 mM Tris-HCl, pH 7.5, 150 mM NaCl, 0.5 % deoxycholate, 1 % Triton X-100, 0.1 % SDS and 1x protease inhibitors) and left on ice for 30 minutes. Cell lysates were clarified by centrifugation at 10000xg for 20 min at 4 °C. Protein concentrations of the supernatants were determined by BCA assay and the absorbance was measured at 562 nm. SDS-PAGE and WB was performed.
# For screening purposes, cells were seeded in 384 well plates and left over night for attachment. […]. For controls, cells were treated with 250 nM torin and/or 100 nM BafA1 for 2 hours.
# Afterwards, medium was removed and 4 % (w/v) paraformaldehyde (PFA) in PBS buffer was added to the cells for 20 minutes, incubated at room temperature. Cells were permeabilized with 0.1 % (v/v) Triton X-100 for 10 min at room temperature and washed with PBS. Cells were blocked with 3 % (w/v) bovine serum albumin (BSA) in PBS for 45 minutes at 37 °C and then incubated with anti-LC3B (PM036, MBL) or anti-p62 (PM045 or M162-3, MBL) primary antibody diluted in 0.3 % BSA (1:2000 or 1:500) for 1.5-2 hours at 37 °C. Cells were washed three times with PBS. Secondary Alexa Fluor 488 - labeled antibodies (A-11008, Invitrogen) were diluted in 0.3 % BSA (1:2500) and incubated on cells for 15 minutes at 37 °C. Cells were washed once with PBS, incubated with DRAQ5 (#4084, Cell Signaling) diluted in PBS (1:5000) for 10 minutes and washed three times with PBS.
# 384 well plates were then analyzed with an automated confocal microscope Opera (PerkinElmer) enabling high throughput high content screening image analysis. […] Signal was detected with a fast gated CCD camera. […]
# The LC3B protein is a ubiquitin-like protein that can be conjugated to phosphatidylethanolamine (PE) in the membrane of the incipient autophagosome. […] Autophagic flux is often inferred on the basis of LC3B-II turnover, measured by western blot (WB) or immunofluorescence (IF) in the presence and absence of lysosomal degradation. […]
smiles,measurement,setting,value
"Brc1ccc(CSC2=NCN(Cc3cccnc3)CN2)cc1 [Compound I-1, 6-((4-bromobenzyl)thio)-3-(pyridin-3-ylmethyl)-1,2,3,4-tetrahydro-1,3,5-triazine]",LC3B inhibition cell based Fold increase of LC3B spots [DMSO control 1.0],LC3B [1],4.9
same,chemical shift perturbations (CSP) of LC3B,LC3B [2],does not induce any significant CSPs
same,numbers of LC3B spots and levels of LC3B-II,"U2OS cells; 100 µM compound together with BafA1 100 nM, compared with single treatment",did not increased further
same,amount of LC3B-II protein and LC3B spots,"U2OS cells; 100 µM, 1 hr",increased
